# Measured values reported in patent US11278526B2, “Compounds and methods for treating lupus” (RECEPTOS LLC, priority 2016, dated 2022).
# Entries after “also recorded” stand apart in the source; their conditions may differ.
# Columns and labels:
# NZBWF1 mice [1] = experiment: Spleen weight at 42 weeks; type: in vivo
# Procedure: (§1) To determine the effects of compound 148 on inflammatory infiltrate in the spleen, spleens were weighed at 42 weeks. […] Splenocyte suspensions were then prepared. RBCs were lysed and splenocytes were counted.
# To determine the effects of compound 5 on inflammatory infiltrate in the spleen, spleens were weighed at 42 weeks. […] The 3 mg/kg dose of compound 5 trended lower indicating fewer inflammatory infiltrates in this organ. Splenocyte suspensions were prepared for all three doses. RBCs were lysed and splenocytes were counted.
# splenocytes = experiment: Splenocyte counts and immunophenotyping of spleen cell subtypes; type: in vivo, mice; conditions: NZBWF1 mice; for Total splenocyte counts relative to vehicle: 42 weeks; for Percent Reduction vs Vehicle: Activated CD4 + T cells / Percent Reduction vs Vehicle: CD4 + T cells / Percent Reduction vs Vehicle: CD8 + T cells / Percent Reduction vs Vehicle: CD11b + Ly6C^hi monocytes / Percent Reduction vs Vehicle: CD19 + B cells / Percent Reduction vs Vehicle: Follicular B cells / Percent Reduction vs Vehicle: Germinal Center B cells / Percent Reduction vs Vehicle: Marginal Zone B cells / Percent Reduction vs Vehicle: Marginal Zone Progenitor B cells / Percent Reduction vs Vehicle: Naive CD4 + T cells / Percent Reduction vs Vehicle: Plasma cells / Percent Reduction vs Vehicle: Tfh cells / Percent Reduction vs Vehicle: Total splenocytes / Percent Reduction vs Vehicle: Treg cells / Percent Reduction vs Vehicle: pDC: spleen
# Procedure: as §1
# Plasmacytoid dendritic cells (pDC) express IFNAR1 (Interferon alpha receptor 1), which amplifies the proinflammatory response to type 1 interferons (e.g., IFNα) that are associated with lupus. IFNAR activity is considered to be an important modulator of signal strength and duration in pDC and subsequent activation of T and B cells in the inflammatory response. pDC counts were measured at termination.
# To determine the effects of compound 5 on inflammatory infiltrate in the spleen, spleens were weighed at 42 weeks. […] Splenocyte suspensions were prepared for all three doses. RBCs were lysed and splenocytes were counted.
# NZBWF1 mice [2] = experiment: Proteinuria scores (urine dip sticks) in NZBWF1 SLE mouse model; type: in vivo; conditions: for Proteinuria scores relative to vehicle: 3.0 mg/kg PO QD; for Proteinuria scores compared to vehicle: 0.3, 1.0 and 3.0 mg/kg PO QD
# Text: Six groups of NZBWF1 mice (Jackson Laboratories, stock #100008) were used in the study and were acclimated to the research facility for 7 weeks prior to the start of the study. Weekly measurements of proteinuria (excess serum proteins present in the urine) and body weight began at 20 weeks of age. At 23 weeks of age, the mice were assigned to groups in a balanced manner in order to achieve average body weight and average proteinuria measurements across the groups. One “naive” group consisting of 10 mice was euthanized at the start of treatment and used as a source of tissue for analysis. Treatment began at 23 weeks of age.
# The three groups dosed with compound 148 received 0.3, 1.0, and 3.0 mg/kg PO QD, respectively (20 mice per dosage). Surviving animals were sacrificed at 42 weeks. […] Disease development was evaluated as disclosed in the following examples.
# High levels of proteinuria are a strong indicator of SLE. […] Proteinuria was expressed as a score from 0 to 4 (0=no protein; 1=traces of protein (<30 mg/dL); 2=30-100 mg/dL; 3=100-500 mg/dL; 4=>500 mg/dL).
# As in Example 3, proteinuria was measured weekly beginning at 20 weeks using urine dip sticks (Roche Diagnostics Chemstrip 2GP, cat. no. 11895397160, per manufacturer's protocol). Proteinuria was expressed as a score from 0 to 4 (0=no protein; 1=traces of protein (<30 mg/dL); 2=30-100 mg/dL; 3=100-500 mg/dL; 4=>500 mg/dL). […] (In this and the following experiments, the number of mice per group was approximately 20, and statistics were determined by one-way ANOVA with Dunnett's comparison.)
# NZBWF1 mice [3] = experiment: Kidney weight at termination (42 weeks); type: in vivo
# Text: In SLE, inflammatory infiltrates known as Tertiary Lymphatic Tissue (TLT) accumulate in the kidney and spleen, among other tissues. As an indirect measure of disease progression, right and left kidneys were weighed (FIGS. 4A-4B) following termination at 42 weeks.
# (§2) As in Example 5, left kidneys were weighed (FIG. 43) following termination at 42 weeks.
# NZBWF1 mice [4] = experiment: Kidney lesion histology scoring (glomerular, tubular and interstitial lesions); type: in vivo; conditions: for Tubular and interstitial lesions: 0.3, 1.0, 3.0 mg/kg PO QD
# Text: Kidney lesions are another indicator of SLE progression. Kidney slides from test mice were stained with H&E and PAS, to evaluate interstitial infiltrates, tubular atrophy, and interstitial fibrosis (collectively, “tubular and interstitial lesions”), mesangial expansion, endocapillary and extracapillary proliferation, glomerular deposits, (collectively, “glomerular lesions”). Each lesion subtype was scored using a 4 point scale: 0=not present, 1=mild, 2=moderate and 3=severe. Average scores were calculated by multiplying the incidence of each grade by the value of the grade for each of the seven lesions and then adding the scores for the group. Thus, an incidence of 3 animals for grade 3 of a lesion equals a score of 9. The scores were then divided by the number of animals scored in the group.
# All slides were scored blind by assigning a random number to each animal and then affixing a temporary label with the random number to the slides. Scores were recorded using Graham StarTox software, version 3.1.0. The StarTox software has a setting that limits the screen display to the random number only, without group or animal number information for use while reading the slides.
# as §2
# [5] = 3.0 mg/kg PO QD (compound 148 study)
smiles,measurement,setting,value
"CC(C)Oc1ccc(-c2nc(-c3cccc4c3CC[C@@H]4N)no2)cc1C#N [compound 148, (S)-5-(3-(1-amino-2,3-dihydro-1H-inden-4-yl)-1,2,4-oxadiazol-5-yl)-2-isopropoxy-benzonitrile]",Spleen weight relative to vehicle,"NZBWF1 mice [1]; all groups 0.3, 1.0, 3.0 mg/kg PO QD",significantly lower
same,Total splenocyte counts relative to vehicle,"splenocytes; all groups 0.3, 1.0, 3.0 mg/kg PO QD (compound 148 study)",reduced
same,Decrease of splenic pDC counts relative to vehicle,"splenocytes; at termination, 3.0 mg/kg PO QD (compound 148 study)",62%
same,Decrease in splenic CD4+ T cell population,splenocytes; [5],75%
same,Decrease in splenic Follicular (FO) B cells,splenocytes; [5],79%
same,Reduction in splenic CD8+ T cell population,splenocytes; [5],62%
same,Reduction in splenic CD19+ B cell population,splenocytes; [5],67%
same,Reduction in splenic Germinal Center (GC) B cell population,splenocytes; [5],51%
same,Reduction in splenic Marginal Zone (MZ) B cell population,splenocytes; [5],61%
same,Reduction in splenic activated CD4+ T cell population,splenocytes; [5],75%
same,Reduction in splenic naïve CD4+ T cells,splenocytes; [5],81%
same,Reduction in splenic plasma cell population,splenocytes; [5],30%
same,Proteinuria scores relative to vehicle,"NZBWF1 mice [2]; weeks 23-42, p<0.05, 3 mg/kg",significant improvement relative to vehicle; also recorded: efficacy similar to cyclophosphamide
same,Proteinuria scores compared to vehicle,NZBWF1 mice [2]; weeks 23-42,lower proteinuria scores in a dose-dependent fashion
same,Kidney weight relative to vehicle,"NZBWF1 mice [3]; 3.0 mg/kg PO QD, p<0.05",significantly reduced kidney weight relative to vehicle
same,Glomerular lesion score,NZBWF1 mice [4]; 0.3 mg/kg PO QD (compound 148 study),glomerular lesion score similar to that of the vehicle control
same,Severity of glomerular lesions,NZBWF1 mice [4]; 1.0 mg/kg and 3.0 mg/kg PO QD (compound 148 study),dose-independent decrease in the severity of glomerular lesions
same,Tubular and interstitial lesions,NZBWF1 mice [4]; p<0.05 (compound 148 study),dose-dependent decrease in tubular and interstitial lesions; also recorded: not statistically different from treatment with cyclophosphamide
same,Combined kidney lesion score (glomerular plus tubular and interstitial) vs vehicle,"NZBWF1 mice [4]; all three treatment groups 0.3, 1.0, 3.0 mg/kg PO QD",dose-related decrease in combined kidney lesion score
"CC(C)Oc1ccc(-c2nc(-c3cccc4c3CC[C@@H]4NCCO)no2)cc1C#N [compound 5, (S)-5-(3-(1-(2-hydroxyethylamino)-2,3-dihydro-1H-inden-4-yl)-1,2,4-oxadiazol-5-yl)-2-isopropoxy benzonitrile]",Spleen weight relative to vehicle,NZBWF1 mice [1]; 3 mg/kg PO QD,trended lower
same,Spleen weight relative to vehicle,"NZBWF1 mice [1]; any dose 0.3, 1.0, 3.0 mg/kg PO QD","lower, but not significant relative to vehicle"
same,Total splenocyte counts relative to vehicle,"splenocytes; all groups 0.3, 1.0, 3.0 mg/kg PO QD (compound 5 study)",reduced
same,Percent Reduction vs Vehicle: Activated CD4 + T cells,splenocytes; 0.3 mg/kg PO QD,46%
same,Percent Reduction vs Vehicle: CD4 + T cells,splenocytes; 0.3 mg/kg PO QD,51%
same,Percent Reduction vs Vehicle: CD8 + T cells,splenocytes; 0.3 mg/kg PO QD,46%
same,Percent Reduction vs Vehicle: CD11b + Ly6C^hi monocytes,splenocytes; 0.3 mg/kg PO QD,−17%
same,Percent Reduction vs Vehicle: CD19 + B cells,splenocytes; 0.3 mg/kg PO QD,43%
same,Percent Reduction vs Vehicle: Follicular B cells,splenocytes; 0.3 mg/kg PO QD,43%
same,Percent Reduction vs Vehicle: Germinal Center B cells,splenocytes; 0.3 mg/kg PO QD,46%
same,Percent Reduction vs Vehicle: Marginal Zone B cells,splenocytes; 0.3 mg/kg PO QD,20%
same,Percent Reduction vs Vehicle: Marginal Zone Progenitor B cells,splenocytes; 0.3 mg/kg PO QD,75%
same,Percent Reduction vs Vehicle: Naive CD4 + T cells,splenocytes; 0.3 mg/kg PO QD,73%
same,Percent Reduction vs Vehicle: Plasma cells,splenocytes; 0.3 mg/kg PO QD,50%
same,Percent Reduction vs Vehicle: Tfh cells,splenocytes; 0.3 mg/kg PO QD,35%
same,Percent Reduction vs Vehicle: Total splenocytes,splenocytes; 0.3 mg/kg PO QD,35%
same,Percent Reduction vs Vehicle: Treg cells,splenocytes; 0.3 mg/kg PO QD,37%
same,Percent Reduction vs Vehicle: pDC,splenocytes; 0.3 mg/kg PO QD,49%
same,Percent Reduction vs Vehicle: Activated CD4 + T cells,splenocytes; 1.0 mg/kg PO QD,72%
same,Percent Reduction vs Vehicle: CD4 + T cells,splenocytes; 1.0 mg/kg PO QD,75%
same,Percent Reduction vs Vehicle: CD8 + T cells,splenocytes; 1.0 mg/kg PO QD,77%
same,Percent Reduction vs Vehicle: CD11b + Ly6C^hi monocytes,splenocytes; 1.0 mg/kg PO QD,34%
same,Percent Reduction vs Vehicle: CD19 + B cells,splenocytes; 1.0 mg/kg PO QD,69%
same,Percent Reduction vs Vehicle: Follicular B cells,splenocytes; 1.0 mg/kg PO QD,66%
same,Percent Reduction vs Vehicle: Germinal Center B cells,splenocytes; 1.0 mg/kg PO QD,57%
same,Percent Reduction vs Vehicle: Marginal Zone B cells,splenocytes; 1.0 mg/kg PO QD,63%
same,Percent Reduction vs Vehicle: Marginal Zone Progenitor B cells,splenocytes; 1.0 mg/kg PO QD,88%
same,Percent Reduction vs Vehicle: Naive CD4 + T cells,splenocytes; 1.0 mg/kg PO QD,91%
same,Percent Reduction vs Vehicle: Plasma cells,splenocytes; 1.0 mg/kg PO QD,66%
same,Percent Reduction vs Vehicle: Tfh cells,splenocytes; 1.0 mg/kg PO QD,51%
same,Percent Reduction vs Vehicle: Total splenocytes,splenocytes; 1.0 mg/kg PO QD,50%
same,Percent Reduction vs Vehicle: Treg cells,splenocytes; 1.0 mg/kg PO QD,58%
same,Percent Reduction vs Vehicle: pDC,splenocytes; 1.0 mg/kg PO QD,72%
same,Percent Reduction vs Vehicle: Activated CD4 + T cells,splenocytes; 3.0 mg/kg PO QD,80%
same,Percent Reduction vs Vehicle: CD4 + T cells,splenocytes; 3.0 mg/kg PO QD,81%
same,Percent Reduction vs Vehicle: CD8 + T cells,splenocytes; 3.0 mg/kg PO QD,75%
same,Percent Reduction vs Vehicle: CD11b + Ly6C^hi monocytes,splenocytes; 3.0 mg/kg PO QD,28%
same,Percent Reduction vs Vehicle: CD19 + B cells,splenocytes; 3.0 mg/kg PO QD,74%
same,Percent Reduction vs Vehicle: Follicular B cells,splenocytes; 3.0 mg/kg PO QD,72%
same,Percent Reduction vs Vehicle: Germinal Center B cells,splenocytes; 3.0 mg/kg PO QD,64%
same,Percent Reduction vs Vehicle: Marginal Zone B cells,splenocytes; 3.0 mg/kg PO QD,54%
same,Percent Reduction vs Vehicle: Marginal Zone Progenitor B cells,splenocytes; 3.0 mg/kg PO QD,85%
same,Percent Reduction vs Vehicle: Naive CD4 + T cells,splenocytes; 3.0 mg/kg PO QD,88%
same,Percent Reduction vs Vehicle: Plasma cells,splenocytes; 3.0 mg/kg PO QD,70%
same,Percent Reduction vs Vehicle: Tfh cells,splenocytes; 3.0 mg/kg PO QD,68%
same,Percent Reduction vs Vehicle: Total splenocytes,splenocytes; 3.0 mg/kg PO QD,60%
same,Percent Reduction vs Vehicle: Treg cells,splenocytes; 3.0 mg/kg PO QD,81%
same,Percent Reduction vs Vehicle: pDC,splenocytes; 3.0 mg/kg PO QD,68%
same,Proteinuria scores relative to vehicle,NZBWF1 mice [2]; weeks 22-42,significant improvement relative to vehicle
same,Proteinuria scores compared to vehicle,NZBWF1 mice [2]; weeks 22-42,lower proteinuria scores in a dose-dependent fashion
same,Left kidney weight relative to vehicle,NZBWF1 mice [3]; 1.0 and 3.0 mg/kg PO QD,significantly reduced kidney weight relative to vehicle
same,Glomerular lesion score,NZBWF1 mice [4]; 0.3 mg/kg PO QD (compound 5 study),"glomerular lesion score less than to that of the vehicle control, but not significant"
same,Severity of glomerular lesions,NZBWF1 mice [4]; 1.0 mg/kg and 3.0 mg/kg PO QD (compound 5 study),dose-independent decrease in the severity of glomerular lesions
same,Tubular and interstitial lesions compared to cyclophosphamide,NZBWF1 mice [4]; 3.0 mg/kg PO QD (compound 5 study),not statistically different from treatment with cyclophosphamide
same,Tubular and interstitial lesions,NZBWF1 mice [4]; significant at 1.0 and 3.0 mg/kg (compound 5 study),dose-dependent decrease in tubular and interstitial lesions
